Laboratory results published in patent US20230158158A1, “PYRAZOLO QUINAZOLINE DERIVATIVE COMPOUNDS INDUCING SELECTIVE DEGRADATION OF PLK1” (UPPTHERA, priority 2020, published 2023).

What follows are compounds tested against T1, PLK1 (Homo sapiens, UniProt P53350) (assay: PLK1 protein degradation by western blotting in HeLa cells). Details: thymidine block and release, compound 100 nM, 6 hours, PLK1/GAPDH ratio, read-out: PLK1 protein degradability (Dmax).
T1 construct: endogenous in cells; host or cells: HeLa
T1 sequence (P53350 whole entry): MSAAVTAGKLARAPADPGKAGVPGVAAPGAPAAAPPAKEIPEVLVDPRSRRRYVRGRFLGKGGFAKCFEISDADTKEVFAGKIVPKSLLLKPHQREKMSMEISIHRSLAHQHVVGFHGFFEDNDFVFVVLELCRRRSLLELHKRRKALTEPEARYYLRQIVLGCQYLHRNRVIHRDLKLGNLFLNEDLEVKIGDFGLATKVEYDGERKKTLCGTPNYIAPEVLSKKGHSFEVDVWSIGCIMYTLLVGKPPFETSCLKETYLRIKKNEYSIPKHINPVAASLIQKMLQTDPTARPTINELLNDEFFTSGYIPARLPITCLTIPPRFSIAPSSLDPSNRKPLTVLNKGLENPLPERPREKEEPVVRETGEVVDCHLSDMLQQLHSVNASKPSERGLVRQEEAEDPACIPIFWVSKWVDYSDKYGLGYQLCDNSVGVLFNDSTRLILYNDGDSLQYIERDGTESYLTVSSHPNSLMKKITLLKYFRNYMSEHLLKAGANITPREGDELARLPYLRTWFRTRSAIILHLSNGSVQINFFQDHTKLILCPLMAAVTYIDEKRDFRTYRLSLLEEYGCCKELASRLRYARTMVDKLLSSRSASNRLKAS
Assay type: cell-based
Method: The HeLa cell line was purchased from Korea Cell Line Bank (KCLB), Seoul, Korea. The passage in cell culture was maintained at P115 to P125.
2×10^5 cells were seeded for each well of a 12-well plate (SPL), and the cells were cultured in the culture medium in a total volume of 2 ml.
The compounds of Examples were completely dissolved in DMSO and used in the experiment, and thymidine was completely dissolved in DW and used in the experiment. For thymidine block, the products were treated with 2 mM of thymidine (Sigma-Aldrich Cat. No. T9250-5G) and then incubated for 24 hours.
For release and chemical treatment, the medium was suctioned and washed 3 times with 1×PBS. Complete media was added, followed by incubation for 4 hours in a CO2 incubator. Each compound was treated according to the concentration of 100 nM and then incubated for 6 hours again.
For SDS-PAGE and Western blotting, 1×RIPA lysis buffer (Rockland, Cat. No. MB-030-0050; Lot no. 39751), 100× Protease Inhibitor Cocktail (Quartett, Cat. No. PPI1015; Lot no. PC050038424), Pierce ? BCA protein assay kit (ThermoScientific, Cat. No. 23225; Lot no. UC276876), albumin standard (ThermoScientific, Cat. No. 23209; Lot no. UB269561), 4-15% Mini-PROTEAN TGX stain-free gel (Bio-rad, Cat. No. 4568085; Lot no. L007041B), 10× Tris/Glycine/SDS buffer (Bio-rad, Cat. No. 1610732; Lot no. 10000044375B); 10×TBS (Bio-rad, Cat. No. 1706435; Lot no. 1000045140B), 10% Tween 20 (Cat. No. 1610781; Lot no. L004152B), Color protein standard broad range (NEB, Cat. No. P7719S; Lot no. 10040349), 4× Laemmli sample buffer (Bio-rad, Cat. No. 1610747; Lot no. L004133B), β-mercaptoethanol (Sigma-Aldrich, Cat. No. M3148; Lot no. 60-24-2), SuperBlock ? T20 (TBS) blocking buffer (ThermoScientific, Cat. No. 37536; Lot no. UC282578), 1M sodium azide solution (Sigma-Aldrich, Cat. No. 08591-1 mL-F; Lot no. BCBV4989), α-Rabbit pAb to Ms IgG (abcam, Cat. No. ab97046; Lot no. GR3252115-1), α-Goat pAb to Rb IgG (CST, Cat. No. 7074S; Lot no. 28), α-GAPDH (abeam, Cat. No. ab8245; Lot no. GR3275542-2), α-Plk1 (CST, Cat. No. 208G4), α-BRD4 (CST, Cat. No. 13440S), ECL ? Prime western blotting reagents (GE Healthcare, Cat. No. RPN2232; Lot no. 17001655), Ponceau S solution (Sigma-Aldrich, Cat. No. P7170; Lot no. SLBV4112), Difco ? […]
Then, a standard curve was obtained using the BCA assay, and the protein mass in the lysate was quantified by substituting the curve equation. The mixture was incubated at 37° C. for 30 minutes using 20 μL of standard or sample solution, and 200 μL of BCA or Bradford solution, and measured at 562 nm absorbance. Samples were prepared by adding 4× sample buffer so that the quantity of protein added to each well was 15 μg. […]

Dmax at 0.1 µM, ≥ 60%:
COc1c(Nc2ncc3c(n2)-c2c(c(C(N)=O)nn2C)CC3)cc(N2CCN(C)CC2)cc1C(=O)NCCOCCOCCNc1cccc2c1C(=O)N(C1CCC(=O)NC1=O)C2=O (stereo not shown) [Compound 2, 8-((3-((2-(2-(2-((2-(2,6-dioxopiperidin-3-yl)-1,3-dioxoisoindolin-4-yl)amino)ethoxy)ethoxy)ethyl)carbamoyl)-2-methoxy-5-(4-methylpiperazin-1-yl)phenyl)amino)-1-methyl-4,5-dihydro-1H-pyrazolo[4,3-h]quinazoline-3-carboxamide]
COc1c(Nc2ncc3c(n2)-c2c(c(C(N)=O)nn2C)CC3)cc(N2CCN(C)CC2)cc1C(=O)NCCOCCOCCOCCNc1cccc2c1C(=O)N(C1CCC(=O)NC1=O)C2=O (stereo not shown) [Compound 3, 8-((3-((2-(2-(2-(2-((2-(2,6-dioxopiperidin-3-yl)-1,3-dioxoisoindolin-4-yl)amino)ethoxy)ethoxy)ethoxy)ethyl)carbamoyl)-2-methoxy-5-(4-methylpiperazin-1-yl)phenyl)amino)-1-methyl-4,5-dihydro-1H-pyrazolo[4,3-h]quinazoline-3-carboxamide]
Cn1nc(C(N)=O)c2c1-c1nc(Nc3cc(N4CCN(CCOCCOCCOCCOCCNc5cccc6c5C(=O)N(C5CCC(=O)NC5=O)C6=O)CC4)ccc3OC(F)(F)F)ncc1CC2 (stereo not shown) [Compound 7, 8-((5-(4-(14-((2-(2,6-dioxopiperidin-3-yl)-1,3-dioxoisoindolin-4-yl)amino)-3,6,9,12-tetraoxatetradecyl)piperazin-1-yl)-2-(trifluoromethoxy)phenyl)amino)-1-methyl-4,5-dihydro-1H-pyrazolo[4,3-h]quinazoline-3-carboxamide]
COc1c(Nc2ncc3c(n2)-c2c(c(C(N)=O)nn2C)CC3)cc(N2CCN(C)CC2)cc1C(=O)NCCOCCOCC(=O)N[C@H](C(=O)N1C[C@H](O)C[C@H]1C(=O)NCc1ccc(-c2scnc2C)cc1)C(C)(C)C [Compound 9, 8-((3-((2-(2-(2-(((S)-1-((2S,4R)-4-hydroxy-2-((4-(4-methylthiazol-5-yl)benzyl)carbamoyl)pyrrolidin-1-yl)-3,3-dimethyl-1-oxobutan-2-yl)amino)-2-oxoethoxy)ethoxy)ethyl)carbamoyl)-2-methoxy-5-(4-methylpiperazin-1-yl)phenyl)amino)-1-methyl-4,5-dihydro-1H-pyrazolo[4,3-h]quinazoline-3-carboxamide]
